From paper PMC4452589, “An evaluation of the brain distribution of [^11C]GSK1034702, a muscarinic-1 (M1) positive allosteric modulator in the living human brain using positron emission tomography” (EJNMMI Research, 2014)
Like-named read-outs stand apart in the source and are kept apart here.

Legend:
[1] = plasma free fraction by ultrafiltration, human arterial plasma; assay type: in vitro ADME
Procedure: Arterial blood radioactivity was measured continuously for the first 15 min after [^11C]GSK1034702 injection, using a continuous sampling system (ABSS Allogg, Mariefred, Sweden). In addition, 12 serial discrete blood samples were obtained (at 5, 10, 15, 20, 25, 30, 40, 50, 60, 70, 80 and 90 min post injection), to determine whole blood and plasma activity. Seven samples (at 5, 10, 20, 30, 50, 70 and 90 min) were further processed by HPLC to measure the fraction of plasma activity representing unmetabolised GSK1034702. For all human studies, the non-protein-bound fraction of [^11C]GSK1034702 in arterial plasma (fP) was assessed by ultrafiltration for the blood sample taken at the beginning of the scan.

[2] = safety and tolerability of single 5-mg oral dose in healthy males; assay type: in vivo, human; conditions: single oral dose of 5 mg
Procedure: An open-label PET study (GSK study number 110771) was conducted to assess the transport of [^11C]GSK1034702 across the BBB and its distribution in the living human brain. Four healthy males aged between 35 and 55 years old, with body mass index (BMI) between 19.0 and 29.0 kg/m^2, and the absence of past or present neurological, medical or psychiatric illnesses and concomitant medications were enrolled. Clinical status was assessed by history, physical examination, routine blood tests, urine toxicology and electrocardiogram. All subjects provided written informed consent. The study was approved by the Edinburgh Independent Ethics Committee for Medical Research and permission to administer radioisotopes was obtained from the Administration of Radioactive Substances Advisory Committee of the UK. Subjects were recruited by and monitored by the Hammersmith Medicines Research (HMR) clinic. All scanning procedures were performed at the GlaxoSmithKline Clinical Imaging Center, Hammersmith Hospital, London.
Each subject underwent a single study day, during which PET imaging was performed. T1-weighted structural MRI scan was performed for all subjects to provide neuroanatomical information. A tracer dose of [^11C]GSK1034702 (mass <50 μg) was administered as an IV bolus immediately before each PET scan. During the scanning day, each subject received a baseline [^11C]GSK1034702 scan, followed by a single 5-mg oral dose (p.o.) of […] and a subsequent [^11C]GSK1034702 scan approximately 4 h post-dose. Subjects returned to the clinic for a follow-up visit 7 to 14 days following the oral dose of GSK1034702.

[3] = plasma protein binding by equilibrium dialysis, rat; assay type: in vitro ADME; conditions: equilibrium dialysis 5 h
Procedure: (§1) The in vitro brain and plasma protein binding of GSK1034702 across a range of species was determined using equilibrium dialysis as described previously.

[4] = plasma protein binding by equilibrium dialysis, dog; assay type: in vitro ADME; conditions: equilibrium dialysis 5 h
Procedure: as §1

[5] = plasma protein binding by equilibrium dialysis, human; assay type: in vitro ADME; conditions: equilibrium dialysis 5 h
Procedure: as §1

[6] = brain tissue binding by equilibrium dialysis, mouse; assay type: in vitro ADME; conditions: equilibrium dialysis 5 h
Procedure: as §1

[7] = brain tissue binding by equilibrium dialysis, rat; assay type: in vitro ADME; conditions: equilibrium dialysis 5 h; for Brain tissue binding: 1 μg/mL, mean ± SD, n = 6; for fraction unbound at 5 h, 1 μg/mL: brain tissue, read-out: f ND (brain-free fraction)
Procedure: as §1

[8] = brain tissue binding by equilibrium dialysis, dog; assay type: in vitro ADME; conditions: equilibrium dialysis 5 h
Procedure: as §1

human recombinant m1AChR = system: human recombinant m1AChR; design: method as in earlier work; conditions: cited from earlier work
human m2-5AChR receptors = system: human m2-5AChR receptors; design: method as in earlier work; conditions: versus m1AChR; cited from earlier work
P-glycoprotein (PGP) = system: P-glycoprotein (PGP); design: method as in GlaxoSmithKline (GSK) data on file; conditions: MDCK cell line expressing human MDR1; ratio printed as x:1; ref GlaxoSmithKline (GSK) data on file; cited from earlier work
[9] = design: method as in GlaxoSmithKline (GSK) data on file; conditions: mouse; ref GlaxoSmithKline (GSK) data on file; cited from earlier work
[10] = design: method as in GlaxoSmithKline (GSK) data on file; conditions: rat; ref GlaxoSmithKline (GSK) data on file; cited from earlier work
[11] = design: method as in GlaxoSmithKline (GSK) data on file; conditions: marmoset; ratio printed as x:1; ref GlaxoSmithKline (GSK) data on file; cited from earlier work
[12] = mean ± SD, n = 6, read-out: Plasma protein binding (converted)
[13] = read-out: f P (plasma-free fraction)
[14] = brain tissue, read-out: f ND (brain-free fraction)

What does the source list for `Cc1cc(F)c2[nH]c(=O)n(C3CCN(C4CCOCC4)CC3)c2c1` [GSK1034702]?
f P Baseline ([1]; Average of four subjects): 0.45; f P Post-dose ([1]; Average, after 5 mg oral): 0.44; f P Baseline ([1]; Subject 1): 0.42; f P Baseline ([1]; Subject 2): 0.43; f P Post-dose ([1]; Subject 2, after 5 mg oral): 0.41; f P Baseline ([1]; Subject 3): 0.43; f P Post-dose ([1]; Subject 3, after 5 mg oral): 0.43; f P Baseline ([1]; Subject 4): 0.51; f P Post-dose ([1]; Subject 4, after 5 mg oral): 0.48; serious adverse events [2]: No serious adverse events; tolerability ([2]; healthy male subjects): well tolerated; adverse events ([2]; one subject, salivary hypersecretion and dysgeusia, considered drug-related): two mild and transient adverse events; fraction unbound at 5 h, 1 μg/mL ([3]; Rat (CD), read-out: f P (plasma-free fraction)): 0.53; fraction unbound at 5 h, 1 μg/mL ([3]; Rat (CD, Sprague Dawley), mean ± SD, n = 6, read-out: Plasma protein binding (converted)): 0.528; fraction unbound at 5 h, 1 μg/mL ([3]; Rat (LH), read-out: f P (plasma-free fraction)): 0.55; fraction unbound at 5 h, 1 μg/mL ([3]; Rat (LH, Lister hooded), mean ± SD, n = 6, read-out: Plasma protein binding (converted)): 0.545; fraction unbound at 5 h, 1 μg/mL [4, 12]: 0.555; fraction unbound at 5 h, 1 μg/mL [4, 13]: 0.56; fraction unbound at 5 h, 1 μg/mL [5, 12]: 0.442; fraction unbound at 5 h, 1 μg/mL [5, 13]: 0.44; fraction unbound at 5 h, 1 μg/mL [6, 14]: 0.13; Brain tissue binding ([6]; 1 μg/mL, mean ± SD, n = 6): 86.7 (±0.6) %; Brain tissue binding ([7]; Rat (CD)): 87.7 (±0.5) %; Brain tissue binding ([7]; Rat (LH)): 84.9 (±1.0) %; fraction unbound at 5 h, 1 μg/mL ([7]; Rat (CD)): 0.12; fraction unbound at 5 h, 1 μg/mL ([7]; Rat (LH)): 0.15; fraction unbound at 5 h, 1 μg/mL [8, 14]: 0.18; Brain tissue binding ([8]; 1 μg/mL, mean ± SD, n = 6): 81.8 (±1.8) %; pEC50 (human recombinant m1AChR; allosteric agonist at human recombinant m1AChR): 8.1 ± 0.1; intrinsic activity (IA) (human recombinant m1AChR; human recombinant m1AChR): 0.78 ± 0.02; selectivity over human m2-5AChR receptors (human m2-5AChR receptors): 100 fold; efflux ratio (P-glycoprotein (PGP)): 2.6; brain/blood ratio [9]: 0.4; brain/blood ratio [10]: 0.6; brain/blood ratio [11]: 2.0
